Experimental data taken from patent US20050009865A1, “Quinoline derivative as diagnostic probe for disease with tau protein accumulation” (priority 2002, published 2005).
“Also recorded” adds a separate entry of the source.

Legend:
[1] = Testing of acute toxicity, intravenous administration; settings: male, Crj:CD1, mouse, in vivo, mice, observed up to 7 days, read-out: Maximum Tolerated Dose
Experimental: Acute toxicity of the inventive compounds was determined employing mice by intravenous administration. Male Crj:CD1 mice were used and divided into groups of 4 mice, with an average weight of each group of 30-34 g. Each compound was dissolved in saline, 1N HCl, or a mixture of 1N HCl/polyethylene glycol 400, and then diluted with distilled water for injection, and administered via tail vein. Up to 7 days after administration, observations were made.

[2] = Testing of blood-brain barrier permeability; type: in vivo; settings: mice, two minutes after intravenous administration
Experimental: Compounds of the present invention were intravenously administered to mice to determine their in vivo blood-brain barrier permeability. • (1) Mice utilized S1c:ICR weighing 30-40 g (7 weeks old, n=3) (Nippon SLC). • (2) A test compound was dissolved in 1N HCl, and then diluted with purified water, and injected via tail vein. Two minutes after administration, the mice, under ether anesthesia, were subjected to taking blood from the abdominal aorta with a heparin-treated syringe and removing the brain. • (3) After taking blood, blood samples were centrifuged at 14,000 rpm at 4° C. for 10 minutes, and their supernatants were kept at −80° C. as plasma sample. The brain (including cerebellum) was kept at −80° C. after its removal. • (4) The plasma sample, when used, was thawed, diluted with purified water, and then applied to a conditioned C18 solid-phase extraction cartridge (bond elute C18, 200 mg, Lot. 070864, Varian), followed by elution with methyl alcohol. • (5) The brain material, when used, were subjected to measuring its wet weight with the brain remaining frozen, and saline was added for homogenization. The homogenate was centrifuged for 10 minutes, and the supernatant was applied to a conditioned C18 solid-phase extraction cartridge and eluted with methyl alcohol. • (6) The test compound was detected at its maximum absorbance (a UV/VIS detector, Waters) and fluorescence (an FS-8020 fluorometer, Tosoh) employing high performance liquid chromatography. • (7) For each of the plasma and brain, the content of the test compound in the plasma or brain (%ID (injected dose)/ml or g) was determined, relative to the administered-dose.

[3] = target: T1, Aβ1-40 taking β-sheet structures (Homo sapiens, UniProt P05067); assay: Binding to amyloid β-protein on slides; settings: Aβ1-40 on slides; 1 μM solution of test chemical
T1 construct: Aβ1-40 (Peptide Institute, Inc., Lot No. 520311, MW: 4329.8); purchased Peptide Institute, Inc. Lot No. 520311
T1 sequence (P05067 672-711 limits assumed): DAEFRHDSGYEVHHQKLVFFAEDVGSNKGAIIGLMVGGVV
Experimental: Properties of binding to amyloid β-protein were examined as follows: • (1) Aβ1-40 (Peptide Institute, Inc., Lot No. 520311, MW: 4329.8) was dissolved in 50 mM potassium phosphate buffer (pH 7.4) at a concentration of 500 μM, and incubated at 37° C. for 3 days or longer, thereby making the protein take β-sheet structures. • (2) After incubation, the Aβ solution was vortexed and diluted to 50 μM for use. • (3) 20 μl of the Aβ1-40 solution was dropped onto a poly-L-lysine-coated slide (MICRO SLIDE GLASS S7441, […]) and dried on an extender (Sakura PS-C2) at about 45° C. • (4) The Aβ1-40 on the slide was covered with 20 μl of 1 μM solution of a chemical to be tested, allowed to stand at room temperature for about 10 minutes, and then washed with a stream of water (tap water), followed by examination under a microscope.

[4] = tested on: senile plaques; assay: Staining of senile plaques in hippocampus sections of the brain of a patient with Alzheimer's disease; type: binding, human; settings: compared with thioflavin S on adjacent section
Excerpt: (§1) The following explanation is made about a method for screening the inventive compounds. • (1) Temporal lobe or hippocampus specimens of the brain of a patient who had been definitely diagnosed pathologically as Alzheimer's disease and of a normal aged individual were used. These specimens were provided from Fukushimura Hospital, our joint research facility, with the consent to their use for research purpose received from the bereaved family of the patient (BF Research Laboratories Institutional Ethics Board Permission No. RS-99-02). • (2) The brain tissues embedded in paraffin were sliced 6 or 8 μm thick, extended on slides, and dried. The paraffin-embedded brain sections were deparaffined by washing sequentially with xylene (10 minutes, twice), 100% ethanol (5 minutes, twice), 95% ethanol (5 minutes, twice), and a stream of water (10 minutes). • (3) Pre-treatment for staining with compounds of the present invention involved treating the sections for eliminating self-fluorescence due to lipofuscin. First, the deparaffined sections were immersed into a 10% formalin solution for 60 minutes and washed with PBS (phosphate-buffered saline) for 5 minutes, followed by immersion into a 0.25% solution of KMnO4 for 90 minutes. After washing twice with PBS for 2 minutes each, the sections were immersed into a solution of 0.1% K2S2O5/oxalic acid for about 30 seconds each, and then washed three times with PBS for 2 minutes each. • (4) About 150 μl of a 100 μM solution of a compound of the present invention dissolved in 50% ethanol was added dropwise onto the sections and allowed the reaction to be carried out for 10 minutes. The sections were dipped into tap water five times, and then 50% ethanol three to five times, followed by immediate classification. After that, the sections were immersed into PBS for 60 minutes, enclosed with Fluor Save Reagent (Calbiochem), and examined under UV-B excitation using a fluorescent microscope (Nikon, Eclips E800). Pictures were taken using a digital camera (Plaroid [sic] PDMCII).

[5] = tested on: neurofibrillary tangles (or phosphorylated tau protein); assay: Staining of neurofibrillary tangles in brain sections of a patient with Alzheimer's disease (screening method); type: binding, human; settings: for staining of neurofibrillary tangles (or phosphorylated tau protein): brain/hippocampus sections of Alzheimer's disease patient, 100 μM compound in 50% ethanol, fluorescence microscopy, compared with thioflavin S on adjacent section
Excerpt: as §1
Immunostaining was carried out as follows: • (1) After the sections were deparaffined, the sections were washed twice with distilled water for 2 minutes each, tissues were marked with an Immunopen. About 150 μl of 3% hydrogen peroxide (diluted in methanol) was added dropwise and allowed to stand at room temperature for 10 minutes. • (2) The sections were-washed twice with cold PBS-Tween 20 for 5 minutes each, and two drops of blocking serum were added and allowed the reaction to be carried out at 37° C. for 30 minutes. Excess water was removed, and two drops of pSer422, an antibody specific to phosphorylated tau (Wako Phosphorylated Tau Immunohistostain Kit 299-57301) and allowed the reaction to be carried out overnight at 4° C. • (3) On the next day, the sections were washed five times with cold PBS-Tween 20 for 2 minutes each, and two drops of a solution of goat anti-rabbit IgG conjugated to biotin were added and allowed the reaction to be carried out at 37° C. for 1 hour. […]

**Q.** Which MTD at 7 days [1] does the source give for CNc1ccc(-c2ccc3ccccc3n2)cc1 [BF-158, 2-(4-(methylamino)phenyl)quinoline] here?
**A.** ≥ 10 mg/kg

**Q.** What about the “Brain content (blood-brain barrier permeability)” value (“Brain content” below) [2] of the same molecule?
**A.** 9.7 % ID/g or ml

**Q.** What about the Plasma content [2] of the same molecule?
**A.** 1.8 % ID/g or ml

**Q.** For Nc1ccc(-c2ccc3ccccc3n2)cc1 [BF-170, 2-(4-(amino)phenyl)quinoline], which “binding to Aβ1-40 taking β-sheet structures (fluorescence)” value [3] is on record?
**A.** hardly bound to this Aβ1-40 (fluorescence was not observed); also recorded: hardly bound to the Aβ1-40 protein (fluorescence was not observed)

**Q.** And the “staining of senile plaques” value [4]?
**A.** stained only neurofibrillary tangles (or phosphorylated tau protein)

**Q.** And the MTD at 7 days [1]?
**A.** ≥ 10 mg/kg

**Q.** What about the “staining of neurofibrillary tangles (or phosphorylated tau protein)” value (shortened to “staining of neurofibrillary tangles”) [5] of the same molecule?
**A.** stained only neurofibrillary tangles (or phosphorylated tau protein)

**Q.** What about the “staining of phosphorylated tau protein recognized by pSer422 antibody” value ([5]; hippocampus sections of Alzheimer's disease patient, adjacent section immunostained with pSer422) of the same molecule?
**A.** stained phosphorylated tau protein which was recognized by pSer422

**Q.** And the “Brain content” value [2]?
**A.** 9.1 % ID/g or ml

**Q.** And the Plasma content [2]?
**A.** 1.4 % ID/g or ml

**Q.** For CN(C)c1ccc(-c2ccc3ccccc3n2)cc1 [Compound N-310, 2-(4-(dimethylamino)phenyl)quinoline], which “staining of neurofibrillary tangles” value [5] is on record?
**A.** stained neurofibrillary tangles (or phosphorylated tau protein)

**Q.** And the “Brain content” value [2]?
**A.** 15.0 % ID/g or ml

**Q.** What about the Plasma content [2] of the same molecule?
**A.** 1.0 % ID/g or ml

**Q.** Which MTD at 7 days [1] does the source give for CCN(CC)c1ccc(-c2ccc3ccccc3n2)cc1 [Compound N-313, 2-(4-(diethylamino)phenyl)quinoline] here?
**A.** ≥ 10 mg/kg

**Q.** What about the “staining of neurofibrillary tangles” value [5] of the same molecule?
**A.** stained neurofibrillary tangles (or phosphorylated tau protein)

**Q.** And the “Brain content” value [2]?
**A.** 4.6 % ID/g or ml

**Q.** And the Plasma content [2]?
**A.** 1.1 % ID/g or ml

**Q.** For Cc1ccc2ccc(-c3ccc(N(C)C)cc3)nc2c1 [SA-820, 2-(4-(dimethylamino)phenyl)-7-methylquinoline], which “staining of senile plaques” value [4] is on record?
**A.** stained senile plaques (wedge-shaped arrowheads) with a clearly weaker degree than that of thioflavin S; also recorded: stained senile plaques (wedge-shaped arrowheads) with a clearly-weaker degree than that of thioflavin S

**Q.** With CN(C)c1ccc(-c2ccc3c(ccc4ccccc43)n2)cc1 [SA-821, 3-(4-(dimethylamino)phenyl)benzo(f)quinoline] as the molecule, how does the “staining of senile plaques” value [4] read?
**A.** stained senile plaques (wedge-shaped arrowheads) with a clearly weaker degree than that of thioflavin S

**Q.** For Cc1ccc2c(c1)sc(-c1ccc(N(C)C)cc1)[n+]2C.[Cl-] [thioflavin T, reference compound], which “binding to Aβ1-40 taking β-sheet structures (fluorescence)” value [3] is on record?
**A.** significant binding to this Aβ1-40; also recorded: significant binding to the Aβ1-40 protein

**Q.** With thioflavin S [reference compound] as the molecule, how does the “staining of senile plaques” value [4] read?
**A.** stained both senile plaques (wedge-shaped arrowheads) and neurofibrillary tangles (or phosphorylated tau protein); also recorded: stained both senile plaques and neurofibrillary tangles

**Q.** What about the “staining of neurofibrillary tangles” value [5] of the same molecule?
**A.** stained both senile plaques (wedge-shaped arrowheads) and neurofibrillary tangles (or phosphorylated tau protein); also recorded: stained both senile plaques and neurofibrillary tangles
